The text below walks through data of patent EP1555944B1, “PACKAGED ANTIMICROBIAL MEDICAL DEVICE AND METHOD OF PREPARING SAME” (ETHICON, INC., priority 2002, dated 2004).

Data set [1] is described as follows: Triclosan distribution between suture and package components after sterilization. It counts as physicochemical. As to conditions: size 5-0 suture, 2% triclosan coating composition, about 23.2 µg before sterilization. The procedure: The coated sutures each were placed in a package as described herein above including a containment component, i.e., a tray, for holding the suture and a paper component for covering the suture in the tray. The suture in the containment component and packaging were sterilized as described herein above. After sterilization, it was determined that that suture contained about 5.5 µg triclosan, the tray about 0.2 µg triclosan, the paper component about 2.3 µg triclosan, and the package heat seal coating about 1.5 µg triclosan. Triclosan not recovered after sterilization was about 13.7 µg triclosan. Fig. 1 indicates triclosan transfer from the antimicrobial suture to the tray of the package as a function of time at 55°C.

The subject of another data set is S. aureus. As to conditions: suitable growth medium; cited from earlier work.

Regarding `Oc1cc(Cl)ccc1Oc1ccc(Cl)cc1Cl` [2,4,4'-trichloro-2'-hydroxydiphenyl ether], in data set [1], the “Triclosan not recovered after sterilization” value was “about 13.7 µg”, the “triclosan on package heat seal coating after sterilization” value is “about 1.5 µg”, the “triclosan on paper component after sterilization” value is listed as “about 2.3 µg” and the “triclosan on suture after sterilization” value is reported as “about 5.5 µg”. Further, the “triclosan on tray after sterilization” value in data set [1] is reported as “about 0.2 µg”. In addition, the “minimum inhibitory concentration (MIC)” value in the data set with S. aureus was 0.01 ppm.
